# Literature values as cited in patent US20080254114A1, “Controlled Release Compositions Comprising Heterocyclic Amide Derivative Nanoparticles” (Elan Corporation plc, priority 2005, published 2008).
# How the values were obtained:
# [1] = test system: leukotrienes (LTC4, LTD4 and LTE4); settings: conducting airway smooth muscle, in vitro
# [2] = administration with food; high fat meal and high protein meal, two separate studies
# [3] = test system: airway responses to antigen; settings: sensitized sheep, inhalational challenge
# LTD4 = settings: inhaled LTD4
smiles,measurement,setting,value
"COc1cc(C(=O)NS(=O)(=O)c2ccccc2C)ccc1Cc1cn(C)c2ccc(NC(=O)OC3CCCC3)cc12 [Zafirlukast, 4-(5-cyclopentyloxy-carbonylamino-1-methyl-indol-3-ylmethyl)-3-methoxy-N-o-tolylsulfonylbenzamide]","contractile activity of LTC4, LTD4 and LTE4",[1],antagonized
same,reduction of mean bioavailability by food,[2],approximately 40%
same,"airway responses to antigen (early- and late-phase response, nonspecific hyperresponsiveness)",[3],suppressed
same,increase in bronchial hyperresponsiveness to inhaled histamine,bronchoconstriction; following inhaled allergen challenge,attenuated
same,"early- and late-phase reaction caused by inhalation of antigens (grass, cat dander, ragweed, mixed antigens)","bronchoconstriction; patients with asthma, pretreatment with single doses",attenuated
same,bronchoconstriction caused by sulfur dioxide and cold air,"bronchoconstriction; patients with asthma, pretreatment with single oral doses",inhibited
same,LTD4-induced influx of eosinophils into animal lungs,LTD4,inhibited
same,solubility in acetone,acetone,freely soluble
same,solubility in dimethyl-sulfoxide,dimethyl-sulfoxide,freely soluble
same,solubility in methanol,methanol,slightly soluble
same,solubility in tetrahydrofuran,tetrahydrofuran,freely soluble
same,solubility in water,water,practically insoluble
